This is an account of results in PMC8126637 (Frontiers in Molecular Biosciences, 2021).

Molecules are shown by their SMILES.

The target of this assay is T1, Universal stress protein (USP, Rv1636) (Mycobacterium tuberculosis, UniProt P9WFC9).
T1 construct: His-tagged Rv1636
T1 sequence (P9WFC9 whole entry): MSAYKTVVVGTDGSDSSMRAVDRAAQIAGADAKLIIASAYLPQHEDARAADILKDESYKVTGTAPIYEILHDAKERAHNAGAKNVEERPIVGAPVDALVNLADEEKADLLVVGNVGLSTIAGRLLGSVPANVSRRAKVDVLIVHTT
Kind of assay: biochemical. It counts as binding.
In the case of `COc1cc(/C=C/C(=O)CC(=O)/C=C/c2ccc(O)c(OC)c2)ccc1O` [Curcumin], binding was put at a Kd of 17.4 ± 0.8 µM.

Regarding `COc1cc2c(cc1OC)-c1cc(NCCCCN)nc(=O)n1CC2` [compound 19, 2-((4-aminobutyl)amino)-9,10-dimethoxy-6,7-dihydro-4H-pyrimido[6,1-a]isoquinolin-4-one], the affinity, expressed as Kd, was 998 ± 82 µM.

`NC(=O)NCCC[C@@H](NC(=O)CCn1ccc2c(Cl)cccc21)C(=O)O` [compound 20, (R)-2-(3-(4-chloro-1H-indol-1-yl)propanamido)-5-ureidopentanoic acid] returned a Kd of 1720 ± 731 µM.

One may read the Kd as the free concentration of one partner at which half of the binding sites on the other are occupied at equilibrium, for simple one-to-one binding. High values mean lower affinity, low ones higher affinity.
